The target in one assay is T1, Cdc7/Dbf4 complex (Homo sapiens, UniProt O00311).
T1 construct: Full-length Cdc7 co-expressed with full-length Dbf4; purchased Carna Biosciences (Kobe)
Description: Measurement of Cdc7 kinase inhibitory activity (Transcreener ADP HTRF assay). The assay is classed as biochemical. Here is the method:
Full-length Cdc7 co-expressed with full-length Dbf4 was purchased from Carna Biosciences (Kobe). The enzyme activity of Cdc7/Dbf4 complex was detected by homogeneous time-resolved fluorescence method Transcreener ADP assay (Cisbio Inc., MA, U.S.A.). […] Free ADP produced by ATP hydrolysis was detected by Eu^3+-Cryptate-labeled anti-ADP monoclonal antibody competitively with d2-labeled ADP, and the production amount thereof was measured. The obtained time-resolved fluorescence resonance energy transfer signal was measured by EnVision (Perkin Elmer Inc., MA, U.S.A.). The inhibitory rate (%) of the test compound to Cdc7 was calculated by the following formula. Inhibitory rate(%)=(1−(count of test compound-blank)[…](control-blank))×100
The count of the Cdc7/Dbf4 reaction mixture under compound-free conditions was taken as the control, and that under compound-free and Cdc7/Dbf4-free conditions was taken as the blank.
For orientation: Time-resolved FRET reads energy transfer from a long-lived donor to a nearby acceptor.

Assay [1] concerns phosphorylated MCM2 (Ser40/Ser41). Description: Measurement of MCM2 phosphorylation inhibitory activity in human colorectal cancer cell Colo205 (Western blot). Format: cell-based. Particulars: read-out: inhibitory rate (%) at 1 μM. Here is the method: The MCM2 phosphorylation suppressive action of the compound of the present invention in human colorectal cancer cell Colo205 can be measured as follows. A cell suspension (500 μl) of human colorectal cancer cell Colo205 (purchased from ATCC) (50,000 cells/well) was plated in a 24 well plate, and cultured in a 5% carbon dioxide gas incubator at 37° C. for 1 day. […] The plate was washed with PBS, the cells were lysed in Laemmli Sample Buffer (BioRad), and cell lysate was treated at 95° C. for 5 min.

In assay [2] the test system is human colorectal cancer cell Colo205. Description: Measurement of growth inhibitory activity on human colorectal cancer cell Colo205 (CellTiter-Glo). Particulars: COLO 205, 72 h, read-out: inhibitory rate (%) at 1 μM. Format: cell-based. The method, then:
The growth inhibition of colorectal cancer cell Colo205 with the compound of the present invention can be measured as follows.
A cell suspension (100 μl) of human colorectal cancer cell Colo205 (purchased from ATCC) (3,000 cells/well) was plated in a 96 well plate, and cultured in a 5% carbon dioxide gas incubator at 37° C. for 1 day. Each 2 μM test compound solution was added by 100 μl and the cells were cultured for 3 days. CellTiter-Glo™ Luminescent Cell Viability Assay reagent (50 μl, Promega) was added to the 96 well plate, the luminescence level was measured by a luminometer and the residual ATP amount was taken as the cell amount. The luminescence level of a well free of cell plating was taken as a blank. The cell proliferation inhibitory rate (%) of the test compound was calculated by the following formula. Inhibitory rate(%)=(1−(luminescence level of test compound—blank)[…](luminescence level of control group—blank))×100
(In general: ATP-based viability assays read luminescence as a measure of living cells.)

[3] abbreviates: test compound 1 μM, Cdc7/Dbf4, 1.0 μm ATP, 10 μg/ml MCM2, read-out: inhibitory rate (%) at 1 μM.
Setting [4] is: read-out: inhibitory rate (%) at 1 μM, test compound 1 μM, Cdc7/Dbf4, 1.0 μm ATP, 10 μg/ml MCM2.
Setting [5] is: COLO 205, phosphorylated MCM2 protein, Colo205 cells, 1 μM, 8 hr.
Setting [6] is: cell proliferation, Colo205, 1 μM, cultured for 3 days.
Setting [7] is: read-out: inhibitory rate (%) at 1 μM.

Structures are written as SMILES. Structures can show the parent of a compound that is named as a salt. Where two headings read alike, the source gives them in different places.

T1 sequence (O00311 whole entry): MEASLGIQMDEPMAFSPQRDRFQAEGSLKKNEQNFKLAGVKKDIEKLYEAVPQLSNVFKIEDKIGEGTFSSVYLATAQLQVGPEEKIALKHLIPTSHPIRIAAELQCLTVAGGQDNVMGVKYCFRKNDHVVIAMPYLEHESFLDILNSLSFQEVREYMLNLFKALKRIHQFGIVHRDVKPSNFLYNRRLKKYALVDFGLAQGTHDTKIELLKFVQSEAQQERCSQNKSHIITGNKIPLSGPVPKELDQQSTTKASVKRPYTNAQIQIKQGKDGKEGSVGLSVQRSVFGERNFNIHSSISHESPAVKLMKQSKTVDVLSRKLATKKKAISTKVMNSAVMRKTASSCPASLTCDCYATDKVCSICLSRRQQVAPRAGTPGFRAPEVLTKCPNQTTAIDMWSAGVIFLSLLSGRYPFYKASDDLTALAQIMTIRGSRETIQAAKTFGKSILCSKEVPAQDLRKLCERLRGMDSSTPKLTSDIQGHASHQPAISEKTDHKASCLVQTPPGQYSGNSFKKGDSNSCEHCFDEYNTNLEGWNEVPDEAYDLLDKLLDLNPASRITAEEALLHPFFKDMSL
T1 sequence (Q9UBU7 whole entry partner): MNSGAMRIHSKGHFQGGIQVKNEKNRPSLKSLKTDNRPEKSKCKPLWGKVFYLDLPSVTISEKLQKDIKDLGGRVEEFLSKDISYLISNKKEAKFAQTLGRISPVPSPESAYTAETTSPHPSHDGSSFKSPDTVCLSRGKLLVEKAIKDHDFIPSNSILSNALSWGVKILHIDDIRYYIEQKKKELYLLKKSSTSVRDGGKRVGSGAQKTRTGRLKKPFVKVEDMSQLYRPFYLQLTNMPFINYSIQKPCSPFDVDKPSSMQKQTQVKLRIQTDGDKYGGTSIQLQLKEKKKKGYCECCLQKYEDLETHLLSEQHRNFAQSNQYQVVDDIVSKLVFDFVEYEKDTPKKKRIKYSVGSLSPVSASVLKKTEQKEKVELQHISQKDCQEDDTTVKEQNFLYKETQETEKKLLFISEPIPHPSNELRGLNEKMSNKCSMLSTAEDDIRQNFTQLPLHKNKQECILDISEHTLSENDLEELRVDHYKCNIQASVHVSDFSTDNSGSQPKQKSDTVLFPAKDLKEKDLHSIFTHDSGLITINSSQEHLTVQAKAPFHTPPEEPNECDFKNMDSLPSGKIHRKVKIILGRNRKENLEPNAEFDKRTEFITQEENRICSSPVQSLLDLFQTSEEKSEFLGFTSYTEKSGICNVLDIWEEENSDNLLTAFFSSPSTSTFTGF

With `Cc1[nH]ncc1-c1cc2nc([C@@H]3CCCN3)[nH]c(=O)c2s1` [Example 37, 6-(5-methyl-1H-pyrazol-4-yl)-2-[(2S)-pyrrolidin-2-yl]thieno[3,2-d]pyrimidin-4 (3H)-one dihydrochloride], the “inhibitory rate (%) at 1 μM” value at Cdc7/Dbf4 complex (test compound 1 μM, Cdc7/Dbf4, 1.0 μm ATP, 10 μg/ml MCM2, dihydrochloride, 1 µM) is on record as 102.6%. Moreover, the inhibition at 1 µM in assay [1] (COLO 205, 8 h) was determined as 98.4%; in assay [2], 75.3%.
Turning to `Cc1[nH]ncc1-c1cc2nc(-c3ccccc3Cl)[nH]c(=O)c2s1` [Example 1, 2-(2-chlorophenyl)-6-(5-methyl-1H-pyrazol-4-yl)thieno[3,2-d]pyrimidin-4 (3H)-one], the inhibition at 1 µM at Cdc7/Dbf4 complex (setting [3]) was 97%.
Regarding `Cc1[nH]ncc1-c1cc2nc(C3(C)CCCN3)[nH]c(=O)c2s1` (stereo not shown) [Example 82, 6-(5-methyl-1H-pyrazol-4-yl)-2-(2-methylpyrrolidin-2-yl)thieno[3,2-d]pyrimidin-4 (3H)-one dihydrochloride], at Cdc7/Dbf4 complex (setting [4]), the inhibition at 1 µM is 105%.
Take `Cc1[nH]ncc1-c1cc2nc([C@@H]3CCCN3)[nH]c(=O)c2s1` [Example 11, 6-(5-methyl-1H-pyrazol-4-yl)-2-[(2S)-pyrrolidin-2-yl]thieno[3,2-d]pyrimidin-4 (3H)-one monotrifluoroacetate]: at Cdc7/Dbf4 complex (setting [4]), the inhibition at 1 µM amounted to 103%.
`Cc1[nH]ncc1-c1cc2nc(CN3CC=CCC3)[nH]c(=O)c2s1` [Example 75, 2-(3,6-dihydropyridin-1(2H)-ylmethyl)-6-(5-methyl-1H-pyrazol-4-yl)thieno[3,2-d]pyrimidin-4 (3H)-one]: at Cdc7/Dbf4 complex (setting [3]), the inhibition at 1 µM was 107%.
For the molecule `Cc1[nH]ncc1-c1cc2nc([C@H]3NC4CC3[C@H](F)C4)[nH]c(=O)c2s1` (single isomer, unassigned) [Example 160, 2-[(1R,3S,4R,5R) or (1S,3S,4S,5R)-5-fluoro-2-azabicyclo[2.2.1]hept-3-yl]-6-(5-methyl-1H-pyrazol-4-yl)thieno[3,2-d]pyrimidin-4 (3H)-one dihydrochloride], the figures for the inhibition at 1 µM (at Cdc7/Dbf4 complex (setting [3]); in assay [1] (setting [5]); in assay [2] (setting [6])) were 104%, 95% and 73.3%, respectively.
Turning to `Cc1[nH]ncc1-c1cc2nc(CN3CC[C@H](F)C3)[nH]c(=O)c2s1` [Example 4, 2-{[(3S)-3-fluoropyrrolidin-1-yl]methyl}-6-(5-methyl-1H-pyrazol-4-yl)thieno[3,2-d]pyrimidin-4 (3H)-one], the inhibition at 1 µM at Cdc7/Dbf4 complex (setting [3]) is 102%.
Turning to `Cc1[nH]ncc1-c1cc2nc([C@H]3CCCCN3)[nH]c(=O)c2s1` [Example 85, 6-(5-methyl-1H-pyrazol-4-yl)-2-[(2R)-piperidin-2-yl]thieno[3,2-d]pyrimidin-4 (3H)-one dihydrochloride], the inhibition at 1 µM at Cdc7/Dbf4 complex (setting [4]) worked out at 103%.
Regarding `Cc1[nH]ncc1-c1cc2nc([C@@H]3C[C@@H](F)CN3)[nH]c(=O)c2s1` [Example 23, 2-[(2S,4R)-4-fluoropyrrolidin-2-yl]-6-(5-methyl-1H-pyrazol-4-yl)thieno[3,2-d]pyrimidin-4 (3H)-one dihydrochloride], the inhibition at 1 µM at Cdc7/Dbf4 complex (setting [3]) worked out at 98.4%.
`Cc1[nH]ncc1-c1cc2nc([C@@H]3CCN3)[nH]c(=O)c2s1` [Example 77, 2-[(2S)-azetidin-2-yl]-6-(5-methyl-1H-pyrazol-4-yl)thieno[3,2-d]pyrimidin-4 (3H)-one]: the inhibition at 1 µM at Cdc7/Dbf4 complex (setting [7]) is 108%.
For the molecule `Cc1[nH]ncc1-c1cc2nc(C3CC=CCN3)[nH]c(=O)c2s1` (stereo not shown) [Example 136, 6-(5-methyl-1H-pyrazol-4-yl)-2-(1,2,3,6-tetrahydropyridin-2-yl)thieno[3,2-d]pyrimidin-4 (3H)-one dihydrochloride], the inhibition at 1 µM on Cdc7/Dbf4 complex (setting [4]) worked out at 91%.
Consider `Cc1[nH]ncc1-c1cc2nc([C@@H]3C[C@@H]4CCCC[C@@H]4N3)[nH]c(=O)c2s1` [Example 78, 6-(5-methyl-1H-pyrazol-4-yl)-2-[(2S,3aS,7aS)-octahydro-1H-indol-2-yl]thieno[3,2-d]pyrimidin-4 (3H)-one], for which, at Cdc7/Dbf4 complex (setting [3]), the inhibition at 1 µM was 86.2%.
Take `Cc1[nH]ncc1-c1cc2nc([C@H]3N[C@@H]4CC[C@H]3C4)[nH]c(=O)c2s1` [Example 91, 2-[(1R,3S,4S)-2-azabicyclo[2.2.1]heptan-3-yl]-6-(5-methyl-1H-pyrazol-4-yl)thieno[3,2-d]pyrimidin-4 (3H)-one]: the figures for the inhibition at 1 µM (on Cdc7/Dbf4 complex (setting [3]); in assay [1] (setting [5]); in assay [2] (setting [6])) were 106%, 98.4% and 71.7%, respectively.
On to `Cc1[nH]ncc1-c1cc2nc([C@@H]3CCCN3C)[nH]c(=O)c2s1` [Example 88, 6-(5-methyl-1H-pyrazol-4-yl)-2-[(2S)-1-methylpyrrolidin-2-yl]thieno[3,2-d]pyrimidin-4 (3H)-one dihydrochloride], for which the inhibition at 1 µM at Cdc7/Dbf4 complex (setting [7]) was determined as 101%.
For the molecule `CCc1[nH]ncc1-c1cc2nc([C@@H]3CCCCN3)[nH]c(=O)c2s1` [Example 162, 6-(5-ethyl-1H-pyrazol-4-yl)-2-[(2S)-piperidin-2-yl]thieno[3,2-d]pyrimidin-4 (3H)-one dihydrochloride], on Cdc7/Dbf4 complex (setting [3]), the inhibition at 1 µM amounted to 104%.
The same measure, in the same setting: as for `Cc1[nH]ncc1-c1cc2nc([C@H]3CC4CCN3CC4)[nH]c(=O)c2s1` [Example 164, 2-[(2R)-1-azabicyclo[2.2.2]oct-2-yl]-6-(5-methyl-1H-pyrazol-4-yl)thieno[3,2-d]pyrimidin-4 (3H)-one trifluoroacetate], the figure is 101%.
For the molecule `Cc1[nH]ncc1-c1cc2nc([C@H]3NCC[C@@H]3C)[nH]c(=O)c2s1` [Example 140, 6-(5-methyl-1H-pyrazol-4-yl)-2-[(2S,3S)-3-methylpyrrolidin-2-yl]thieno[3,2-d]pyrimidin-4 (3H)-one dihydrochloride], the inhibition at 1 µM on Cdc7/Dbf4 complex (setting [7]) was 100%.
Take `Cc1[nH]ncc1-c1cc2nc(C34CCC(CC3)N4)[nH]c(=O)c2s1` [Example 116, 2-(7-azabicyclo[2.2.1]hept-1-yl)-6-(5-methyl-1H-pyrazol-4-yl)thieno[3,2-d]pyrimidin-4 (3H)-one monohydrochloride]: the inhibition at 1 µM on Cdc7/Dbf4 complex (setting [4]) was 102%; in assay [1] (COLO 205, 8 h), 98.7%; in assay [2], 60.5%.
Turning to `Cc1[nH]ncc1-c1cc2nc([C@H]3NC[C@H]4C[C@H]43)[nH]c(=O)c2s1` (relative stereo) [Example 87, 2-[(1R*,2S*,5S*)-3-azabicyclo[3.1.0]hex-2-yl]-6-(5-methyl-1H-pyrazol-4-yl)thieno[3,2-d]pyrimidin-4 (3H)-one dihydrochloride], on Cdc7/Dbf4 complex (setting [3]), the inhibition at 1 µM came out at 107%.
As for `Cc1[nH]ncc1-c1cc2nc([C@@H]3CC4CCN3CC4)[nH]c(=O)c2s1` [Example 170, 2-[(2S)-1-azabicyclo[2.2.2]oct-2-yl]-6-(5-methyl-1H-pyrazol-4-yl)thieno[3,2-d]pyrimidin-4 (3H)-one trifluoroacetate], the inhibition at 1 µM turned out to be 95% at Cdc7/Dbf4 complex (setting [3]); 97.3% in assay [1] (COLO 205, 8 h); 69.7% in assay [2].
On to `Cc1[nH]ncc1-c1cc2nc([C@]34C[C@H]3CCN4)[nH]c(=O)c2s1` [Example 157, 2-[(1S,5R)-2-azabicyclo[3.1.0]hex-1-yl]-6-(5-methyl-1H-pyrazol-4-yl)thieno[3,2-d]pyrimidin-4 (3H)-one dihydrochloride], for which the inhibition at 1 µM at Cdc7/Dbf4 complex (setting [3]) turned out to be 92%.
As for `Cc1[nH]ncc1-c1cc2nc(CN3CCCC3)[nH]c(=O)c2s1` [Example 2, 6-(5-methyl-1H-pyrazol-4-yl)-2-(pyrrolidin-1-ylmethyl)thieno[3,2-d]pyrimidin-4 (3H)-one], the inhibition at 1 µM on Cdc7/Dbf4 complex (setting [4]) stood at 93.8%; in assay [1] (COLO 205, 8 h), 90.4%; in assay [2], 44.1%.

Source of the values: patent publication US9388195B2, “Heterocyclic compound” (Takeda Pharmaceutical Company Limited, priority 2010, dated 2016).
